Structures can show the parent of a compound that is named as a salt. Where two headings read alike, the source gives them in different places.
Legend:
Assay in all cases: biochemical
[1] = molecular target: T1, recombinant human MMP-1 (Homo sapiens, UniProt P03956); conditions: read-out: MMP-1 IC50
T1 construct: made in house; host or cells: transfected HT-1080 cells (provided by Dr. Harold Welgus, Washington University)
T1 sequence (P03956 100-469): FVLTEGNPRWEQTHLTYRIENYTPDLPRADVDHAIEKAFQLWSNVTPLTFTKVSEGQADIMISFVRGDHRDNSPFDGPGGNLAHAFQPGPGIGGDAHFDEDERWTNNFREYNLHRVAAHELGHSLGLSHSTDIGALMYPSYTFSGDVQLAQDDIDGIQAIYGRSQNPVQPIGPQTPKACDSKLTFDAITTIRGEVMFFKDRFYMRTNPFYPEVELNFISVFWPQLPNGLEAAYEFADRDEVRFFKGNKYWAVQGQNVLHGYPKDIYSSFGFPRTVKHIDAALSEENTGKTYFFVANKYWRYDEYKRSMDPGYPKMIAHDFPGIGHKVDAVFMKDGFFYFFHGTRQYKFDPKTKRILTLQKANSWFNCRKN

[2] = molecular target: T2, recombinant human MMP-2 (Homo sapiens, UniProt P08253)
T2 sequence (P08253 110-660): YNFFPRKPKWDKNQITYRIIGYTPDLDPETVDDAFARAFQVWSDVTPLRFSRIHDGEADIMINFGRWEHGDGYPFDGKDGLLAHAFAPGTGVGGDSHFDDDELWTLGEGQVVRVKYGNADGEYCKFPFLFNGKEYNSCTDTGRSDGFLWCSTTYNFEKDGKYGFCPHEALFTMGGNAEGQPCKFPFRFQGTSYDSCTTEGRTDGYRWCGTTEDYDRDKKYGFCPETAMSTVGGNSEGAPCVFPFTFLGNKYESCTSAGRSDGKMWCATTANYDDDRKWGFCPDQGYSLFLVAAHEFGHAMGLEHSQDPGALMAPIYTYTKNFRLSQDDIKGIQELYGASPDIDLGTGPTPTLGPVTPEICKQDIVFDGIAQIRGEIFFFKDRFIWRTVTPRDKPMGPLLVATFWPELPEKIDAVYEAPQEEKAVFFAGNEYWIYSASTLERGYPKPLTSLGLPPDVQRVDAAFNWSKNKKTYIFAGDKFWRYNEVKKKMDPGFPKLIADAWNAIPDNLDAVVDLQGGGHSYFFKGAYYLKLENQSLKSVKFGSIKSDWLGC

[3] = molecular target: recombinant human MMP-13 (Homo sapiens, UniProt P45452)
[4] = Inhibition Table B, read-out: MMP-2 IC50
[5] = Inhibition Table B, read-out: MMP-13 IC50
[6] = Inhibition Table A, read-out: MMP-2 IC50
[7] = Inhibition Table A, read-out: MMP-13 IC50

Row | Compound | IC50 ([1]; Inhibition Table B) [nM] | IC50 [2, 4] [nM] | IC50 [3, 5] [nM] | also measured
1 | O=C(NO)C1(S(=O)(=O)c2ccc(-c3cccc4ccccc34)cc2)CCOCC1 [Example 224] | > 10000 | 18.1 | 16.7 | –
2 | CS(=O)(=O)N1CCC(C(=O)NO)(S(=O)(=O)c2ccc(Oc3ccccc3)cc2)CC1 [Example 18] | – | – | – | IC50 ([1]; Inhibition Table A): 800 nM; IC50 ([2]; MMP-2 IC50 (nM)): 0.3 nM; IC50 [3]: 0.5 nM
3 | O=C(NO)C1(S(=O)(=O)c2ccc(F)cc2)CCOCC1 [Example 66, 4-[(4-fluorophenyl)-sulfonyl]tetrahydro-N-hydroxy-2H-pyran-4-carboxamide] | > 10000 | 4590 | 36000 | –
4 | O=C(NO)C1(S(=O)(=O)c2ccc(-c3ccc4ccccc4c3)cc2)CCOCC1 [Example 227] | > 10000 | < 1 | < 1 | –
5 | O=C(NO)C1(S(=O)(=O)c2ccc(Sc3ccccc3)cc2)CC[S+]([O-])CC1 (stereo not drawn) [Example 113] | > 10000 | 0.9 | 4 | –
6 | Cc1nc2cc(Oc3ccc(S(=O)(=O)C4(C(=O)NO)CCOCC4)cc3)ccc2s1 [Example 121, tetrahydro-N-hydroxy-4-[[4-[(2-methyl-5-benzothiazolyl)-oxy]phenyl]sulfonyl]-2H-pyran-4-carboxamide] | 1200 | < 0.1 | 0.2 | –
7 | CC(C)N1CCC(C(=O)NO)(S(=O)(=O)c2ccc(Sc3ccccc3)cc2)CC1 [Example 34, N-hydroxy-1-(1-methylethyl)-4-[[4-(phenylthio)phenyl]sulfonyl]-4-piperidinecarboxamide, Monohydrochloride] | – | 1.1 | 1.2 | IC50 [1]: > 10000 nM
8 | O=C(NO)C1(S(=O)(=O)c2ccc(N3CCN(CCO)CC3)cc2)CCOCC1 [Example 127] | – | 37 | 40 | IC50 [1]: > 10000 nM
9 | O=C(NO)C1(S(=O)(=O)c2ccc(-c3cccc(C(F)(F)F)c3)cc2)CCOCC1 [Example 219] | > 10000 | < 1 | < 1 | –
10 | O=C(NCc1ccc(F)cc1)C1CCN(c2ccc(S(=O)(=O)C3(C(=O)NO)CCOCC3)cc2)CC1 [Example 197] | 7000 | 145 | 8 | –
11 | CC(C)(C)c1ccc(-c2ccc(S(=O)(=O)C3(C(=O)NO)CCOCC3)cc2)cc1 [Example 226] | > 10000 | 18.6 | 6 | –
12 | O=C(NO)C1(S(=O)(=O)c2ccc(Sc3ccc(F)cc3)cc2)CCNCC1 [Example 22] | – | – | – | IC50 ([1]; Inhibition Table A): > 10000 nM; IC50 [2, 6]: 0.9 nM; IC50 [3, 7]: 1.2 nM
13 | Cc1ccccc1-c1ccc(S(=O)(=O)C2(C(=O)NO)CCOCC2)cc1 [Example 225] | > 10000 | 54 | 70 | –
14 | C#CCN1CCC(C(=O)NO)(S(=O)(=O)c2ccc(SC3CCCC3)cc2)CC1 [Example 45, 4-[[4-(Cyclopentylthio)-phenyl]sulfonyl]-N-hydroxy-1-(2-propynyl)-4-piperidinecarboxamide, Monohydrochloride] | 8800 | 2.5 | 1.7 | –
15 | O=C(NO)C1(S(=O)(=O)c2ccc(Oc3ccc(OCc4ccccc4)cc3)cc2)CCOCC1 [Example 72, tetrahydro-N-hydroxy-4-[[4-[4-[(phenylmethyl)oxy]phenoxy]-phenyl]-sulfonyl]-2H-pyran-4-carboxamide] | 2100 | < 0.1 | 0.3 | –
16 | O=C(NO)C1(S(=O)(=O)c2ccc(N3CCC(c4ccccc4)CC3)cc2)CCOCC1 [Example 11] | – | – | – | IC50 ([1]; Inhibition Table A): > 10000 nM; IC50 ([2]; MMP-2 IC50 (nM)): 4.4 nM; IC50 [3, 7]: 6 nM

Row | Compound | IC50 ([1]; Inhibition Table B) [nM] | IC50 [2, 4] [nM] | IC50 [3, 5] [nM] | also measured
17 | O=C(NO)C1(S(=O)(=O)c2ccc(-c3ccccc3)cc2)CCOCC1 [Example 213] | 310 | < 1 | < 1 | –
18 | O=C(NO)C1(S(=O)(=O)c2ccc(Sc3ccccc3)cc2)CCSCC1 [Example 49, tetrahydro-N-hydroxy-4-[[4-(phenylthio)phenyl]sulfonyl]-2H-thiopyran-4-carboxamide] | > 10000 | 76.9 | 90 | –
19 | CCOC(=O)N1CCN(c2ccc(S(=O)(=O)C3(C(=O)NO)CCOCC3)cc2)CC1 [Example 126] | 8000 | 11.3 | 10 | –
20 | C#CCN1CCC(Oc2ccc(S(=O)(=O)C3(C(=O)NO)CCOCC3)cc2)CC1 [Example 106, Tetrahydro-N-hydroxy-4-[[4-[[1-(2-propynyl)-4-piperidinyl]-oxy]phenyl]sulfonyl]-2H-pyran-4-carboxamide, Monohydrochloride] | > 10000 | 27.1 | 12.1 | –
21 | O=C(NO)C1(S(=O)(=O)c2ccc(Sc3ccccc3)cc2)CCS(=O)(=O)CC1 [Example 52] | > 10000 | 2.7 | 5.9 | –
22 | Nc1ccc(Sc2ccc(S(=O)(=O)C3(C(=O)NO)CCOCC3)cc2)cc1 [Example 120, 4-[[4-[(4-aminophenyl)thio]phenyl]-sulfonyl]tetrahydro-N-hydroxy-2H-pyran-4-carboxamide] | 4000 | 0.4 | 0.4 | –
23 | O=C(NO)C1(S(=O)(=O)c2ccc(Sc3ccccc3)cc2)CCNCC1 [Example 86, 4-[[4-(phenylthio)-phenyl]-sulfonyl]-N-hydroxy-4-piperidine-carboxamide, Monohydrochloride] | > 10000 | 2.5 | 3.5 | –
24 | COc1ccc(Sc2ccc(S(=O)(=O)C3(C(=O)NO)CCSCC3)cc2)cc1 [Example 51, Tetrahydro-N-hydroxy-4-[[4-[(4-methoxypheny)thio]phenyl]sulfonyl]-2H-thiopyran-4-carboxamide] | 5500 | 0.7 | 1.3 | –
25 | O=C(CS(=O)(=O)c1ccc(NC(=O)OCc2ccccc2)cc1)NO [Example 74, phenylmethyl-[4-[[2-(hydroxyamino)-2-oxoethyl]-sulfonyl]-phenyl]carbamate] | > 10000 | 130 | 480 | –
26 | CN1CCC(C(=O)NO)(S(=O)(=O)c2ccc(Oc3ccccc3)cc2)CC1 [Example 14] | – | – | – | IC50 ([1]; Inhibition Table A): 464 nM; IC50 [2, 6]: < 0.1 nM; IC50 [3, 7]: 0.1 nM
27 | O=Cc1ccc(-c2ccc(S(=O)(=O)C3(C(=O)NO)CCOCC3)cc2)cc1 [Example 231] | 650 | < 1 | < 1 | –
28 | O=C(NO)/C(=C\c1ccccc1)S(=O)(=O)c1ccc(Oc2ccccc2)cc1 [Example 5] | – | – | – | IC50 ([1]; Inhibition Table A): > 10000 nM; IC50 [2, 6]: 1800 nM; IC50 [3, 7]: 4800 nM
29 | CC(C)(C)OC(=O)N1CCC(C(=O)NO)(S(=O)(=O)c2ccc(Oc3ccccc3)cc2)CC1 [Example 3] | – | – | – | IC50 ([1]; Inhibition Table A): 1140 nM; IC50 [2, 6]: 0.2 nM; IC50 [3, 7]: 0.3 nM
30 | O=C(NO)C1(S(=O)(=O)c2ccc(Oc3ccc(Cl)c(F)c3)cc2)CCOCC1 [Example 122, 4-[[4-(4-chloro-3-fluorophenoxy)phenyl]sulfonyl]-tetrahydro-N-hydroxy-2H-pyran-4-carboxamide] | 600 | 0.1 | 0.15 | –
31 | O=C(NO)C1(S(=O)(=O)c2ccc(SC3CCCCC3)cc2)CCNCC1 [Example 19] | – | – | – | IC50 ([1]; Inhibition Table A): > 10000 nM; IC50 [2, 6]: 13.9 nM; IC50 [3, 7]: 9 nM
32 | Nc1cccc(-c2ccc(S(=O)(=O)C3(C(=O)NO)CCOCC3)cc2)c1 [Example 232] | < 100 | < 1 | < 1 | –

Source: patent US20010039287A1, “AROMATIC SULFONE HYDROXAMIC ACID METALLOPROTEASE INHIBITOR” (priority 1997, published 2001)
